Measured values as given in the NIST ThermoML archive (doi:10.1016/j.tca.2013.08.017).

Columns and labels:
[1] = 101.33 kPa, Crystal, X-ray diffraction
[2] = molar heat capacity at constant pressure; details: 101.33 kPa, Small sample (50 mg) DSC

CC(C)(C)n1ncc2c(C(F)(F)F)n[nH]c(=O)c21
Details | mass density [kg/m3]
[1], 293 K | 1451

[2]
Details | molar heat capacity at constant pressure [J/K/mol]
273 K, Crystal | 174
283 K, Crystal | 202.9
293 K, Crystal | 231.9
303 K, Crystal | 260.8
313 K, Crystal | 289.8
323 K, Crystal | 318.7
333 K, Crystal | 347.6
343 K, Crystal | 376.6
353 K, Crystal | 405.5
363 K, Crystal | 434.4
373 K, Crystal | 463.4
383 K, Crystal | 492.3
393 K, Crystal | 521.2
403 K, Crystal | 550.2
413 K, Crystal | 579.1
423 K, Crystal | 608.1
448 K, Liquid | 813.3
458 K, Liquid | 923.4
463 K, Liquid | 978.4

CC(C)(C)n1ncc2c(-c3ccccc3)n[nH]c(=O)c21
Details | mass density [kg/m3]
[1], 296 K | 1298

[2], Crystal
Details | molar heat capacity at constant pressure [J/K/mol]
273 K | 944.5
283 K | 1034.5
293 K | 1124.7
303 K | 1216.4
313 K | 1310.8
323 K | 1409.1
333 K | 1512.5
343 K | 1622.1
353 K | 1739.2
363 K | 1865
373 K | 2000.7
383 K | 2147.5
393 K | 2306.5
403 K | 2479
413 K | 2666.2
423 K | 2869.3
